The target of one test is T1, IKKε (Homo sapiens, UniProt Q14164).
T1 sequence (Q14164 1-716): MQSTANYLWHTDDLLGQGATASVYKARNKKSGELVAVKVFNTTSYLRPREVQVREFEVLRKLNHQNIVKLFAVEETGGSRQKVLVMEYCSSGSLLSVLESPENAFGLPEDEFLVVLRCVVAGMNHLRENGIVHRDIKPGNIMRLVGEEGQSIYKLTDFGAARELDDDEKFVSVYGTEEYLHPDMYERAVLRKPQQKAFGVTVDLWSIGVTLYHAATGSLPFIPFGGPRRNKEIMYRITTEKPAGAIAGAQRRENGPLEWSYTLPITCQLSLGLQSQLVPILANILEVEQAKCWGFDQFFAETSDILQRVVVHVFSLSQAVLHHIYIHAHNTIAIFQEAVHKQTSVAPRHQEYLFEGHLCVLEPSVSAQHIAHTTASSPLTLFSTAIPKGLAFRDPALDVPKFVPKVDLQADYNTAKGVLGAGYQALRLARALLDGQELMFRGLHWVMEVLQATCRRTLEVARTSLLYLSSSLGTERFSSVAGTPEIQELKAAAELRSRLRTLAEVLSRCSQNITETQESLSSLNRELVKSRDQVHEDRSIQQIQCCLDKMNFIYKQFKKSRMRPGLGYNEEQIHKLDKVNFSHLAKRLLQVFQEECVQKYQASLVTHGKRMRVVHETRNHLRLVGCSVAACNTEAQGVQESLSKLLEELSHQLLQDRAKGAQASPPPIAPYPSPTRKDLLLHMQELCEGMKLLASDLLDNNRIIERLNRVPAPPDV
The test can be described thus: IKKe Biochemical Assay. To be noted: read-out: IKKε IC50. In outline:
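Recombinant IKKε and substrate were incubated with compound (10-point 1:4 series, top 30 uM final, 1% DMSO) for 90 min at 25° C, then stopped. Substrate-to-product conversion was read by LabChip microfluidic mobility shift; 10 uM staurosporine served as full-inhibition wells.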

For a further test, the target named is T2, TBK1 (Homo sapiens, UniProt Q9UHD2).
T2 sequence (Q9UHD2 1-729): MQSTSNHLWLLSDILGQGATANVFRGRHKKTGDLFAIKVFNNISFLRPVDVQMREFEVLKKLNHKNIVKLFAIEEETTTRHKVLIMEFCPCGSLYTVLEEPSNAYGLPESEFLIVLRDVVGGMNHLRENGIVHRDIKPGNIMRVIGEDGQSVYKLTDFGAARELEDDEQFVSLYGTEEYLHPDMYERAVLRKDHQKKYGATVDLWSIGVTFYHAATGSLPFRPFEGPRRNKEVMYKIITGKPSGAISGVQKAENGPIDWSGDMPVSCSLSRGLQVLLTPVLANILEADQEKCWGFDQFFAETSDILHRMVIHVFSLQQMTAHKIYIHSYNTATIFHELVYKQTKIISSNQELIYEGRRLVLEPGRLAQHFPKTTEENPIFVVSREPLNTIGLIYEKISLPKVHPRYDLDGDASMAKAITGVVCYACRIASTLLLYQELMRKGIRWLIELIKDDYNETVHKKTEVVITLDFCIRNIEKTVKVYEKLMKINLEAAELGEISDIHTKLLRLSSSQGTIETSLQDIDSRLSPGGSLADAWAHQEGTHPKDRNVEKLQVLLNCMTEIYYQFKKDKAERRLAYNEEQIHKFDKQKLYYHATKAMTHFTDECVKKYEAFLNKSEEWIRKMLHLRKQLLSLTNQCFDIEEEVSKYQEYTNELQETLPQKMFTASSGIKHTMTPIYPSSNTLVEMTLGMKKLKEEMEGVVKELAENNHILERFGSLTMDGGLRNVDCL
Kind of test: TBK Biochemical Assay. To be noted: read-out: TBK1 IC50. In short, it runs like this: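 TBK1 enzyme and substrate incubated with compounds (10-point 1:4 dilution, top 30 uM final, 1% DMSO) for 90 min at 25° C, then stopped. Substrate/product peaks read by microfluidic mobility-shift (Caliper LabChip); 10 uM staurosporine as full-inhibition control.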

For 20 molecules, IC50 results are on record in patent US10428080B2, “TBK/IKK inhibitor compounds and uses thereof” (Merck Patent GmbH, priority 2015, dated 2019).

Structures can show the parent of a compound that is named as a salt.

What is called IC50 is the concentration needed to halve the response being measured. In the case of `N#Cc1cc(-c2ccnc3cc(-c4ccc(C(=O)O)cc4)oc23)ccc1Oc1ccncc1` [Compound 192, 4-{7-[3-Cyano-4-(pyridin-4-yloxy)-phenyl]-furo[3,2-b]pyridin-2-yl}-benzoic acid], the IC50 on IKKε and at TBK1 was above 5 µM in each case.

For the molecule `CN(C)C(=O)c1ccc(-c2cc3nccc(-c4ccc(NC5CCOCC5)c(C#N)c4)c3o2)cc1` [Compound 194, 4-(7-(3-cyano-4-(tetrahydro-2H-pyran-4-ylamino)phenyl)furo[3,2-b]pyridin-2-yl)-N,N-dimethylbenzamide hydrochloride], the IC50 on IKKε and at TBK1 was 0.1 to 1 µM throughout.

Turning to `CC1CC(Nc2ccc(-c3ccnc4cc(-c5ccc(C(=O)N(C)C)cc5)oc34)cc2C#N)CC(C)O1` (stereo not shown) [Compound 215, 4-(7-(3-cyano-4-(2,6-dimethyl-tetrahydro-2H-pyran-4-ylamino)phenyl)furo[3,2-b]pyridin-2-yl)-N,N-dimethylbenzamide hydrochloride], the IC50 at IKKε fell in the range of 0.1 to 1 µM; at TBK1, 1 to 5 µM.

In the case of `CN(C)C(=O)c1ccc(-c2cc3nccc(-c4ccc(OC5CC(C)(C)NC(C)(C)C5)c(C#N)c4)c3o2)cc1` [Compound 216, 4-(7-(3-cyano-4-(2,2,6,6-tetramethylpiperidin-4-yloxy)phenyl)furo[3,2-b]pyridin-2-yl)-N,N-dimethylbenzamide], the IC50 at IKKε and at TBK1 was above 5 µM each time.

For the molecule `CN(C)C(=O)c1ccc(-c2cc3nccc(-c4ccc(NC5C6COCC65)c(C#N)c4)c3o2)cc1` (stereo not shown) [Compound 217, 4-(7-(4-(3-oxa-bicyclo[3.1.0]hexan-6-ylamino)-3-cyanophenyl)furo[3,2-b]pyridin-2-yl)-N,N-dimethylbenzamide hydrochloride], the IC50 on IKKε and at TBK1 was 0.1 to 1 µM throughout.

Turning to `CN(C)C(=O)c1ccc(-c2cc3nccc(-c4ccc(NC5CC(C)(C)OC(C)(C)C5)c(C#N)c4)c3o2)cc1` [Compound 218, 4-(7-(3-cyano-4-(2,2,6,6-tetramethyl-tetrahydro-2H-pyran-4-ylamino)phenyl)furo[3,2-b]pyridin-2-yl)-N,N-dimethylbenzamide], the IC50 on IKKε and on TBK1 was 1 to 5 µM each time.

In the case of `CN(C)C(=O)c1ccc(-c2cc3nccc(-c4ccc(CN5CCOCC5)c(C#N)c4)c3o2)cc1` [Compound 222, 4-(7-(3-cyano-4-(morpholinomethyl)phenyl)furo[3,2-b]pyridin-2-yl)-N,N-dimethylbenzamide], the IC50 at IKKε and at TBK1 was 0.1 to 1 µM in each case.

Consider `CN(C)C(=O)c1ccc(-c2cc3nccc(-c4ccc(C(C)(C)N5CCOCC5)c(C#N)c4)c3o2)cc1` [Compound 223, 4-(7-(3-cyano-4-(2-morpholinopropan-2-yl)phenyl)furo[3,2-b]pyridin-2-yl)-N,N-dimethylbenzamide hydrochloride], for which the IC50 at IKKε and at TBK1 was below 0.1 µM each time.

Consider `CN(C)C(=O)c1ccc(-c2cc3nccc(-c4cc(F)c(NC5CCOCC5)c(C#N)c4)c3o2)cc1` [Compound 224, 4-(7-(3-cyano-5-fluoro-4-(tetrahydro-2H-pyran-4-ylamino)phenyl)furo[3,2-b]pyridin-2-yl)-N,N-dimethylbenzamide hydrochloride], for which the IC50 on IKKε is below 0.1 µM; on TBK1 it was 0.1 to 1 µM.

As to `CN(C)C(=O)c1ccc(-c2cc3nccc(-c4cc(F)c(N(C)C5CCOCC5)c(C#N)c4)c3o2)cc1` [Compound 225, 4-(7-(3-cyano-5-fluoro-4-(methyl(tetrahydro-2H-pyran-4-yl)amino)phenyl)furo[3,2-b]pyridin-2-yl)-N,N-dimethylbenzamide hydrochloride], the IC50 on IKKε and at TBK1 was 0.1 to 1 µM in each case.

For the molecule `COc1cc(C(=O)N(C)C)ccc1-c1cc2nccc(-c3ccc(NC4CCOCC4)c(C#N)c3)c2o1` [Compound 226, 4-(7-(3-cyano-4-(tetrahydro-2H-pyran-4-ylamino)phenyl)furo[3,2-b]pyridin-2-yl)-3-methoxy-N,N-dimethylbenzamide], the IC50 at IKKε and at TBK1 was below 0.1 µM in each case.

Turning to `COc1cc(C(=O)N(C)C)ccc1-c1cc2nccc(-c3ccc(N(C)C4CCOCC4)c(C#N)c3)c2o1` [Compound 227, 4-(7-(3-cyano-4-(methyl(tetrahydro-2H-pyran-4-yl)amino)phenyl)furo[3,2-b]pyridin-2-yl)-3-methoxy-N,N-dimethylbenzamide], the IC50 on IKKε and at TBK1 was below 0.1 µM in each case.

Consider `COc1cc(C(=O)N(C)C)ccc1-c1cc2nccc(-c3ccc(NC4CC(C)OC(C)C4)c(C#N)c3)c2o1` (stereo not shown) [Compound 228, 4-(7-(3-cyano-4-(2,6-dimethyl-tetrahydro-2H-pyran-4-ylamino)phenyl)furo[3,2-b]pyridin-2-yl)-3-methoxy-N,N-dimethylbenzamide], for which the IC50 on IKKε is below 0.1 µM; at TBK1, 0.1 to 1 µM.

Turning to `COc1cc(C(=O)N(C)C)ccc1-c1cc2nccc(-c3ccc(OC4CC(C)(C)NC(C)(C)C4)c(C#N)c3)c2o1` [Compound 229, 4-(7-(3-cyano-4-(2,2,6,6-tetramethylpiperidin-4-yloxy)phenyl)furo[3,2-b]pyridin-2-yl)-3-methoxy-N,N-dimethylbenzamide], the IC50 at IKKε and at TBK1 was 0.1 to 1 µM throughout.

As for `COc1cc(C(=O)N(C)CCO)ccc1-c1cc2nccc(-c3ccc(NC4CCOCC4)c(C#N)c3)c2o1` [Compound 230, 4-(7-(3-cyano-4-(tetrahydro-2H-pyran-4-ylamino)phenyl)furo[3,2-b]pyridin-2-yl)-N-(2-hydroxyethyl)-3-methoxy-N-methylbenzamide], the IC50 at IKKε and on TBK1 was below 0.1 µM each time.

Regarding `COc1cc(C(=O)N(C)C)ccc1-c1cc2nccc(-c3ccc(O[C@H]4[C@H](C)COC[C@@H]4C)c(C#N)c3)c2o1` [Compound 232, 4-(7-(3-cyano-4-(3,5-dimethyl-tetrahydro-2H-pyran-4-yloxy)phenyl)furo[3,2-b]pyridin-2-yl)-3-methoxy-N,N-dimethylbenzamide], the IC50 on IKKε and on TBK1 was below 0.1 µM each time.

For `COc1cc(C(=O)N(C)C)ccc1-c1cc2nccc(-c3ccc(O[C@@H]4[C@H](C)COC[C@@H]4C)c(C#N)c3)c2o1` [Compound 233, 4-(7-(3-cyano-4-(3,5-dimethyl-tetrahydro-2H-pyran-4-yloxy)phenyl)furo[3,2-b]pyridin-2-yl)-3-methoxy-N,N-dimethylbenzamide], the IC50 on IKKε and at TBK1 was below 0.1 µM throughout.

As for `COc1cc(C(=O)N(C)C)ccc1-c1cc2nccc(-c3ccc(CN4CCOCC4)c(C#N)c3)c2o1` [Compound 234, 4-(7-(3-cyano-4-(morpholinomethyl)phenyl)furo[3,2-b]pyridin-2-yl)-3-methoxy-N,N-dimethylbenzamide], the IC50 on IKKε and at TBK1 was below 0.1 µM in each case.

For `COc1cc(C(=O)N(C)C)ccc1-c1cc2nccc(-c3ccc(C(C)(C)N4CCOCC4)c(C#N)c3)c2o1` [Compound 235, 4-(7-(3-cyano-4-(2-morpholinopropan-2-yl)phenyl)furo[3,2-b]pyridin-2-yl)-3-methoxy-N,N-dimethylbenzamide hydrochloride], the IC50 on IKKε and at TBK1 was 0.1 to 1 µM each time.

In the case of `COc1cc(C(=O)N(C)C)ccc1-c1cc2nccc(-c3cc(F)c(NC4CCOCC4)c(C#N)c3)c2o1` [Compound 236, 4-(7-(3-cyano-5-fluoro-4-(tetrahydro-2H-pyran-4-ylamino)phenyl)furo[3,2-b]pyridin-2-yl)-3-methoxy-N,N-dimethylbenzamide], the IC50 on IKKε and on TBK1 was below 0.1 µM throughout.
